Measurements: PMC11768839 (Viruses, 2024)
“And” between values parts separate entries of the source, which are not always exact repeats. Equal entries are not always repeated.

What was measured:
[1] = Cytotoxicity in Huh7 cells (alamarBlue); type: cell-based; settings: human, listed with HCoV-229E qPCR assay
Coronavirus (HCoV-229E) = assay: HCoV-229E qPCR assay (viral RNA release into media) in Huh7 cells
HCoV-229E [2] = assay: HCoV-229E infectious virus yield by TCID50 assay in Huh7 cells; settings: dose reducing HCoV-229E RNA in media by 50% (EC50, 1.2 µM), 24 h
SARS-CoV-2 [3] = type: cell-based
HAdV-C5 = assay: Adenovirus HAdV-C5 virus yield in A549 cells (endpoint dilution); type: cell-based, human adenovirus serotype 5; settings: 5 µM, HAdV-C5 100 IU/cell, 24 hpi
[4] = tested on: SARS-CoV-2 nucleocapsid (N) protein; assay: SARS-CoV-2 nucleocapsid (N) protein expression by western blot; type: cell-based; settings: SARS-CoV-2 SB2, Huh7 cells, immunoblot
Pharmacokinetics in mice = type: in vivo
HIV-1 = tested on: HIV-1; set-up: method as in earlier work; settings: HIV-1 replication; cited from earlier work
Influenza A Virus (PR8) [5] = assay: Influenza PR8 TCID50 assay (infectivity) in A549 cells; settings: MOI of 2, A549 cells
[6] = type: in vivo
HCoV-OC43 [7] = assay: HCoV-OC43 viral release into media (RTqPCR) in Huh7 cells; settings: 2.5 µM, MOI of 2, 24 h
HCoV-229E [8] = assay: HCoV-229E intracellular viral RNA accumulation after delayed compound addition; type: cell-based; settings: compound added 16 hpi, 9 h after addition, MOI 2, Huh7 cells
Influenza A Virus (PR8) [9] = assay: Influenza PR8 qPCR assay (viral RNA release into media) in A549 cells
SARS-CoV-2 [10] = assay: SARS-CoV-2 replication in human lung organoids (RTqPCR of media); type: cell-based; settings: 2.5 µM added post-infection, SB2, MOI of 2, 3 or 6 days post-infection
HCoV-OC43 [11] = assay: HCoV-OC43 replication in human lung organoids (RTqPCR of media); type: cell-based; settings: 2.5 µM added post-infection, MOI of 2, 3 or 6 days post-infection
in vitro = settings: human

With CC(C)(C)NC(=O)N[C@H](C(=O)N1C[C@H]2[C@@H]([C@H]1C(=O)NC(CC1CCC1)C(=O)C(N)=O)C2(C)C)C(C)(C)C (stereo partly drawn) [Boceprevir, reference compound] the CC50 ([1]; MOI of 2) was > 100000 nM, the EC50 (Coronavirus (HCoV-229E); MOI of 2, Huh7 cells) was 111 ± 24 nM and the EC90 (Coronavirus (HCoV-229E); MOI of 2, Huh7 cells) was 1200 ± 95 nM.
In the case of O=[N+]([O-])c1ccc(Nc2ccc(Cl)c(C(F)(F)F)c2)c2nonc12 [Compound 5342191, N-[4-chloro-3-(trifluoromethyl)phenyl]-7-nitro-2,1,3-benzoxadiazol-4-amine], the “reduction in infectious virus yield” value (HCoV-229E [2]) is reported as “over 90%”, the CC50 ([1]; MOI of 0.01) is reported as > 1000 nM and the CC50 ([1]; MOI of 2) is reported as 34000 ± 755 nM. For the same compound, the EC50 (Coronavirus (HCoV-229E); MOI of 0.01) was 73 ± 13 nM, the EC90 (Coronavirus (HCoV-229E); MOI of 0.01) was 857 ± 56 nM and the EC50 (Coronavirus (HCoV-229E); MOI of 2, Huh7 cells) was 1200 ± 196 nM. The EC90 (Coronavirus (HCoV-229E); MOI of 2, Huh7 cells) was 2500 ± 282 nM, the “effect on cell metabolism” value (A549 cells) was “limited effect” and the “suppression of the release of SARS-CoV-2” value (SARS-CoV-2 [3]) was “approximately 80%”. For the same compound, the “reduction in virus yield (maximal effect)” value (HAdV-C5) was ~ 1000 fold, the “reduction of SARS-CoV-2 nucleocapsid (N) protein expression” value [4] was “approximately 90%” and the oral bioavailability (Pharmacokinetics in mice) was “orally bioavailable”. For the same compound, the blood concentration maintained (Pharmacokinetics in mice; oral dose of 30 mg/kg, up to 8 h after administration, 30 mg/kg) was 2 µg/mL and 5.5 µM, the EC50 (HIV-1) was 750 nM and the EC90 (HIV-1) was 1750 nM. For the same compound, the EC50 (Influenza A Virus (PR8) [5]) was 75 ± 17 nM, the EC90 (Influenza A Virus (PR8) [5]) was 99 ± 8 nM and the “body weight / gross necroscopy findings” value ([6]; 5342191-treated mice) was “absence of significant changes in body weight”. For the same compound, the tolerability ([6]; daily oral dose of 40 mg/kg over 7 days, mice) was “well tolerated”, the “inhibition of viral release into the media” value (HCoV-OC43 [7]) was “over 90%” and the “reduction of viral genomic RNA accumulation” value (HCoV-229E [8]) was ~ 50%. It also gave an EC50 (Influenza A Virus (PR8) [9]; MOI of 0.01) of 47 ± 13 nM, an EC90 (Influenza A Virus (PR8) [9]; MOI of 0.01) of 149 ± 55 nM and an EC50 (Influenza A Virus (PR8) [9]; MOI of 2) of 51 ± 42 nM. For the same compound, the EC90 (Influenza A Virus (PR8) [9]; MOI of 2) was 104 ± 23 nM, the “SARS-CoV-2 replication in human lung organoids” value (SARS-CoV-2 [10]) was “effectively blocked” and the “HCoV-OC43 replication in human lung organoids” value (HCoV-OC43 [11]) was “effectively blocked”.
With NC(=O)c1nc(F)c[nH]c1=O [Favipiravir] the EC50 (Influenza A Virus (PR8) [5]) was 1200 ± 135 nM, the EC90 (Influenza A Virus (PR8) [5]) was 6200 ± 332 nM and the CC50 (in vitro) was > 100000 nM.
With CC(C)C(=O)OC[C@H]1O[C@@H](n2ccc(NO)nc2=O)[C@H](O)[C@@H]1O [Molnupiravir, reference compound] the CC50 ([1]; MOI of 2) was > 100000 nM, the EC50 (Coronavirus (HCoV-229E); MOI of 2, Huh7 cells) was 25 ± 9 nM and the EC90 (Coronavirus (HCoV-229E); MOI of 2, Huh7 cells) was 137 ± 23 nM.
In the case of CCOC(=O)C1=C[C@@H](OC(CC)CC)[C@H](NC(C)=O)[C@@H](N)C1 [Oseltamivir], the EC50 (Influenza A Virus (PR8) [5]) is reported as 257 ± 40 nM, the EC90 (Influenza A Virus (PR8) [5]) is reported as 1500 ± 209 nM and the CC50 (in vitro) is reported as > 100000 nM.
